# Assay results: PMC3634732, “Chemical Chaperones Exceed the Chaperone Effects of RIC-3 in Promoting Assembly of Functional α7 AChRs” (PLoS ONE, 2013)
# pEC50: −log10 of the molar value.
# Key:
# Rat α7 AChRs = conditions: cited from earlier work
# [1] = system: α7 AChRs in primary cultures of rat hippocampal neurons; assay: 125I αBgt binding to rat hippocampal neuron cultures; assay type: cell-based; conditions: for Increase of α7 AChR expression: VPA for 5 days
# α7/RIC-3 cell line = assay: Tolerability of chemical chaperones in α7/RIC-3 culture; assay type: cell-based, human; conditions: 6 mM, applied for longer periods than a few days
# [2] = molecular target: T1, α7 AChRs on the surface of cells in the α7/RIC-3 line (Homo sapiens, UniProt P36544); assay: Upregulation of surface 125I αBgt binding in the α7/RIC-3 cell line; assay type: cell-based; conditions: single chemical chaperone
# T1 construct: expressed in transfected cells
# [3] = system: endogenous α7 AChRs in SH-SY5Y neuroblastoma cell line; assay: Surface 125I αBgt binding in SH-SY5Y cells treated with chemical chaperones; assay type: cell-based, human
# T1 sequence (P36544 23-502): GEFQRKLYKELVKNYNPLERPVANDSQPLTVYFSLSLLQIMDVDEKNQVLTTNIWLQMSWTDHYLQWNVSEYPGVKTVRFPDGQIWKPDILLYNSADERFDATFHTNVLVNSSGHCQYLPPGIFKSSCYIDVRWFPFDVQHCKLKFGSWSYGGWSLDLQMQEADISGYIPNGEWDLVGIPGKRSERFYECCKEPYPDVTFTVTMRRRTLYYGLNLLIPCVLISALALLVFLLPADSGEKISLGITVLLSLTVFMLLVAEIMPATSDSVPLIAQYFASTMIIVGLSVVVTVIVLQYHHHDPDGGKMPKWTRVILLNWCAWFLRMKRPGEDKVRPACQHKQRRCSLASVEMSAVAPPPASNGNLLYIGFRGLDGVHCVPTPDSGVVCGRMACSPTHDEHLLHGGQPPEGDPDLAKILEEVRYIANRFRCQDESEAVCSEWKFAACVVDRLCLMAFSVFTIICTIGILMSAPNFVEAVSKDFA
Structure (SMILES),pEC50 (Rat α7 AChRs),Effect on 125I αBgt binding ([1]; rat hippocampal neurons (data not shown)),Toxicity in culture (α7/RIC-3 cell line),Expression of α7 AChRs on the cell surface [2],"Increase of 125I αBgt binding to the cell surface ([3]; 24 hours, 10 µM) [fold]","Increase of α7 AChRs in the cell surface vs control ([3]; 24 hours, 300 µM) [fold]","Increase in expression of α7 AChRs on the cell surface, maximum ([3]; concentration-dependent)",Increase of α7 AChR expression ([1]; at 20 days in culture) [%],Increase of α7 AChR expression ([1]; cultures only 1 week old) [%],Increase of 125I αBgt binding ([1]; long term treatment of primary cultures) [%],Concentration giving maximum upregulation ([1]; rat hippocampal neurons) [mM],Increase of α7 expression ([3]; 100 µM) [fold]
CC(=O)OCC[N+](C)(C)C [ACh],3.55,,,,,,,,,,,
"O=C(O)CCCc1ccccc1 [PBA, 4-phenylbutyric acid]",,ineffective,toxic when applied for longer periods,greatly increased,3,7.8,up to 7.8 fold,,,,,
"CCCC(CCC)C(=O)O [VPA, valproic acid]",,,,greatly increased,,,,57,68,60,0.5,7.3
